# Assay results: patent US20030232101A1, “Topical formulations of resorcinols and cannibinoids and methods of use” (Immugen Pharmaceuticals, Inc., priority 2002, published 2003)
# Read-outs that look alike come from different tables or passages of the source.
# Legend:
# Assay type in all cases: cell-based
# [1] = Compound toxicity in the fusion assay, sister plate, XTT or MTS (Example 2); conditions: human, HeLa CD4 LTR β-gal cells, read-out: Fusion Assay TC50
# Experimental: (§1) The fusion assay assesses the ability of compounds to block cell-to-cell fusion mediated by HIV-1 Env and CD4 expressed on separate cells. This assay is sensitive to inhibitors of both the gp 120/CD4 interaction and inhibitors of the X4 coreceptor. HeLa CD4 LTR β-gal cells were plated in microtiter wells and diluted compounds are added and allowed to incubate at 37° C. for 1 hr prior to the addition of HL2/3 cells. The incubation was then continued for 40 to 48 h, after which fusion is monitored by measurement of β-galactosidase enzyme expression, detectable by chemiluminescence (Tropix Gal-screen, Tropix, Bedford, Mass.). Compound toxicity is monitored on a sister plate using XTT or MTS dye reduction. All determinations are performed in triplicate with serial_Log10 dilution of the test materials.
# [2] = Compound toxicity in the attachment assay, sister plates, MTS dye reduction; conditions: human, HeLa CD4 LTR β-gal cells, read-out: TC50
# Experimental: At assay termination the assay plates were stained with the soluble tetrazolium-based dye MTS (CellTiter96® Reagent Promega) to determine cell viability and quantify compound toxicity. MTS is metabolized by the mitochondria enzymes of metabolically active cells to a soluble formazan product, allowing the rapid quantitative analysis cell viability and compound cytotoxicity. […] At termination of the assay 20 μL of MTS reagent was added per well and incubated for 4 h at 37° C. Adhesive plate sealers were used in place of the lids, the sealed plate was inverted several times to mix the soluble formazan product and the plate was read spectrophotometrically at 490 nm with a Molecular Devices Vmax plate reader.
# The attachment assay was performed with the HeLa CD4 LTR β-gal cells available from the AIDS Research and Reference Reagent Repository. […] HeLa CD4 LTR β-gal cells express cell surface CD4 and contain an LTR β-galactosidase reporter construct. Upon infection either the Tat protein incorporated into the virion or new Tat produced following virus integration and transcription trans-activates the LTR β-gal reporter, leading to expression of the β-galactosidase enzyme. HeLa CD4 LTR β-gal cells are routinely cultured with the required selection antibiotics and screened for mycoplasma contamination. Twenty-four h prior to initiation of the assay cells were trypsinized, counted and 1×10^4 cells placed in a 0.2 cm well in media without selection antibiotics. […] A known titer of virus was then added to the wells and the incubation continued for 1 h. At the end of the incubation the wells were washed 6 times with media and the culture continued for 48 h. At 48 h the wells were washed one time with PBS and β-galactosidase enzyme expression determined by chemiluminescence per manufacturers instructions (Tropix Gal-screen™, Tropix, Bedford, Mass.). Compound toxicity was monitored on sister plates using MTS dye reduction.
# [3] = system: cell-to-cell fusion mediated by HIV-1 Env and CD4; assay: Fusion assay, HeLa CD4 LTR β-gal and HL2/3 cells (Experimental Example 2); conditions: Human immunodeficiency virus 1, HL2/3, read-out: Fusion Assay IC50
# Experimental: as §1
# [4] = system: IIIB strain of HIV-1; assay: Virus attachment assay, HeLa CD4 LTR β-gal cells (Experimental Example 2); conditions: Human immunodeficiency virus 1, IIIB, HeLa, read-out: Attachment Assay IC50
# Experimental: This assay detects compounds that block virus attachment using HeLa CD4 LTR β-gal cells. HeLa CD4 LTR β-gal cells were cultured with selection antibiotics. Twenty-four h prior to initiation of the assay, the cells were trypsinized, counted and plated in a 0.2 cm well in media without selection antibiotics. At 24 h media is removed and compound in media placed on the cells and incubated for 15 min at 37° C. A known titer of the IIIB strain of HIV-1 was then added to the wells and the incubation continued for 1 to 2 h. At the end of the incubation the wells were washed 2 times with media and the culture continued for 40 to 48 h. At termination of the assay, media is removed and β-galactosidase enzyme expression determined by chemiluminescence per manufacturer's instructions (Tropix Gal-screen, Bedford Mass.). Compound toxicity is monitored on a sister plate by XTT or MTS dye reduction. All determinations are performed in triplicate with serial_Log10 dilution of the test materials.
# [5] = system: interaction of HIV gp 120 with CD4 (HeLa CD4 LTR β-gal / HL2/3 cell fusion); assay: HeLa CD4 LTR β-gal/HL2/3 HIV-1 fusion assay (Experimental Example 1); conditions: fusion assay
# From the text: This assay uses the HeLa CD4 LTR β-gal and HL2-3 cells available from the AIDS Research and Reference Reagent Repository. The fusion assay utilizes HeLa CD4 LTR β-gal cells with HL2/3 cells as a fusion partner via the interaction of HIV gp 120 with CD4. HL2/3 cells express HIV-1 Env on their cell surface and contain an HIV-1 Tat expression cassette. Upon syncytium formation and plasma membrane fusion, cytoplasmic mixing of the HL2/3 and HeLa CD4 LTR b-gal cell contents results in the transactivation of the LTR and β-Galactosidase expression is then directly related to […] cell membrane fusion. Thus, these two mechanistic assays can be used to confirm and identify a virus entry-based target of the compound. Additionally, because the attachment assay uses cell-free virus this assay can be used to show applicability to cell-free virus transmission.
# Twenty-four h prior to initiation of the assay cells were trypsinized, counted and 5×10^3 cells placed in a 0.2 cm well in media without selection antibiotics. To initiate the fusion assay HeLa CD4 LTR β-gal (5×10^3 cells per 0.2 cm well) were incubated with compound for 1 h at 37° C. HL2/3 cells (5×10^3) were added to the 0.2 cm well and the incubation continued for 48 h. At 48 h the wells were washed 1 time with PBS and β-galactosidase enzyme expression determined by chemiluminescence per manufacturers instructions (Tropix Gal-screen™, Tropix, Bedford, Mass.). Compound toxicity was monitored on sister plates using MTS dye reduction.
# In addition to assessing inhibition of attachment with HeLa CD4 LTR β-gal cells a virus fusion assay was perfoed using HeLa CD4 LTR β-gal and HL2/3 cells. No timed addition of compound was employed, but rather the assay was performed to verify the effects of the compounds on the HeLa CD4 LTR β-gal cells β-galactosidase expression.
structure (smiles),measurement,setting,value
"Cc1c(O)cc(C(C)(C)CCCC(C)C)cc1O [IMG510, 2-Methyl-5-(1,1,5-trimethylhexyl)resorcinol]",CC50,[1],> 100 µM
same,CC50 at 48 h,"[2]; Experiment 1, pretreat 0 h",> 50 µM
same,CC50 at 48 h,"[2]; Experiment 1, pretreat 4 h",> 50 µM
same,CC50 at 48 h,"[2]; Experiment 1, pretreat 24 h",> 50 µM
same,CC50 at 48 h,"[2]; Experiment 2, pretreat 0 h",> 50 µM
same,CC50 at 48 h,"[2]; Experiment 2, pretreat 4 h",> 50 µM
same,CC50 at 48 h,"[2]; Experiment 2, pretreat 24 h",39.4 µM
same,IC50,[3],1.36 µM
same,IC50,[4],50.8 µM
"CC(C)=CCCC1(C)CCc2c(O)cc(C(C)(C)CCCC(C)C)cc2O1 (stereo not drawn) [IMG508, 3,4-Dihydro-2-methyl-2-(4-methyl-3-pentenyl)-7-(1,1,5-trimethylhexyl)-2H-1-benzopyran-5-ol]",CC50 at 48 h,"[2]; Experiment 1, pretreat 0 h",> 50 µM
same,CC50 at 48 h,"[2]; Experiment 1, pretreat 4 h",> 50 µM
same,CC50 at 48 h,"[2]; Experiment 1, pretreat 24 h",> 50 µM
same,CC50 at 48 h,"[2]; Experiment 2, pretreat 0 h",> 50 µM
same,CC50 at 48 h,"[2]; Experiment 2, pretreat 4 h",29 µM
same,CC50 at 48 h,"[2]; Experiment 2, pretreat 24 h",12.2 µM
"COc1cc(C(C)(C)CCCC(C)C)cc(OC)c1OC [IMG507, 1-(1,1,5-Trimethylhexyl)-3,4,5-trimethoxybenzene]",CC50 at 48 h,"[2]; Experiment 1, pretreat 0 h",> 50 µM
same,CC50 at 48 h,"[2]; Experiment 1, pretreat 4 h",> 50 µM
same,CC50 at 48 h,"[2]; Experiment 1, pretreat 24 h",> 50 µM
same,CC50 at 48 h,"[2]; Experiment 2, pretreat 0 h",> 50 µM
same,CC50 at 48 h,"[2]; Experiment 2, pretreat 4 h",> 50 µM
same,CC50 at 48 h,"[2]; Experiment 2, pretreat 24 h",> 50 µM
"Cc1ccc2c(c1)-c1c(O)cc(C(C)(C)CCCC(C)C)cc1OC2(C)C [IMG511, 3-Norpentyl-3-(1,1,5-trimethylhexyl)cannabinol]",Comments: suppression of β-galactosidase activity,[5],Suppression of β-galactosidase
same,CC50,[1],20.7 µM
same,CC50 at 48 h,"[2]; Experiment 1, pretreat 0 h",> 50 µM
same,CC50 at 48 h,"[2]; Experiment 1, pretreat 4 h",> 50 µM
same,CC50 at 48 h,"[2]; Experiment 1, pretreat 24 h",> 50 µM
same,CC50 at 48 h,"[2]; Experiment 2, pretreat 0 h",> 50 µM
same,CC50 at 48 h,"[2]; Experiment 2, pretreat 4 h",> 50 µM
same,CC50 at 48 h,"[2]; Experiment 2, pretreat 24 h",11.1 µM
same,IC50,[3],0.92 µM
same,IC50,[4],46.3 µM
"C=C(C)[C@@H]1CCC(C)=C[C@H]1c1c(O)cc(CCCCC)cc1O [Cannabidiol, reference compound]",Comments: suppression of β-galactosidase activity,[5],Suppression of β-galactosidase
same,CC50 at 48 h,"[2]; Experiment 1, pretreat 0 h",> 50 µM
same,CC50 at 48 h,"[2]; Experiment 1, pretreat 4 h",> 50 µM
same,CC50 at 48 h,"[2]; Experiment 1, pretreat 24 h",> 50 µM
same,CC50 at 48 h,"[2]; Experiment 2, pretreat 0 h",> 50 µM
same,CC50 at 48 h,"[2]; Experiment 2, pretreat 4 h",41 µM
same,CC50 at 48 h,"[2]; Experiment 2, pretreat 24 h",33 µM
"CC1=CCC2C(C1)c1c(O)cc(C(C)(C)CCCC(C)C)cc1OC2(C)C (stereo not drawn) [IMG509, 3-Norpentyl-3-(1,1,5-trimethylhexyl)-Δ8-tetrahydrocannabinol]",Comments: suppression of β-galactosidase activity,[5],Suppression of β-galactosidase
same,CC50,[1],18.4 µM
same,CC50 at 48 h,"[2]; Experiment 1, pretreat 0 h",> 50 µM
same,CC50 at 48 h,"[2]; Experiment 1, pretreat 4 h",> 50 µM
same,CC50 at 48 h,"[2]; Experiment 1, pretreat 24 h",> 50 µM
same,CC50 at 48 h,"[2]; Experiment 2, pretreat 0 h",> 50 µM
same,CC50 at 48 h,"[2]; Experiment 2, pretreat 4 h",37 µM
same,CC50 at 48 h,"[2]; Experiment 2, pretreat 24 h",14.9 µM
same,IC50,[3],1.21 µM
same,IC50,[4],48.4 µM
